Patent publication US6166045A, “Torasemide of modification III” (Roche Diagnostics GmbH, priority 1998, dated 2000)
Read-outs that look alike come from different tables or passages of the source. Each block holds one molecule with its values, some of them ahead of it.

Legend:
[1] = prior art (U.S. Re 34,672 and 34,580); listed as modification I; cited from earlier work
True density = format: physicochemical
Experimental: One aspect of the present invention involves pure torasemide of modification III. It is believed that pure torasemide of modification III was previously unknown to the art. Torasemide of modification III can be characterized by a melting point of 155 to 158° C. (thermomicroscopy) and a true density of 1.302±0.009 g cm^-3 (versus 1.363±0.001 g cm^3 for modification I). In a preferred embodiment, the torasemide of modification III is pure. This term "pure" means that the torasemide contains less than about 1% of modification I and/or II, and less in any event than amounts of modification I which adversely effect the stability of modification III.
True density (g cm^-3) ± 95% - c.i.

[2] = literature (Acta Cryst. 1978), cited from earlier work
[3] = Water content after storing in relative humidity of 92% at 25° C.; format: physicochemical; conditions: 92% relative humidity, Mod. III depending on particle size
Experimental: Relevant data of the two most important crystal forms (modification I and III) of torasemide are summarized in Table 1. | Water content (%) after storing in relative 0.2 1.2 (depending | humidity of 92% at 25° C. on particle size

Heat of solution = format: physicochemical; conditions: in I-butanol at 20° C.
Experimental: Relevant data of the two most important crystal forms (modification I and III) of torasemide are summarized in Table 1. | Heat of solution (kJ mol^-1) in I-butanol at 20° C. 36.1

[4] = Heat of fusion / heat of transition (DSC); format: physicochemical; conditions: for Heat of fusion ± 95% - C.B.: heating rate 5K min^-1
Diuretic effect = conditions: in vivo
[5] = Storage stability of the crystal modification; format: physicochemical; conditions: storage stable: tablet form, ambient conditions, less than 5% changing into another crystalline form over six months
[6] = Serum concentration of torasemide in rats after oral administration; format: in vivo, Wistar rat; conditions: male rats (FIG. 1); for Serum concentration compared with modification I: oral 3 mg per kilogram
Experimental: FIG. 1 is a plot of serum concentration levels in male rats of torasemide of modification I and modification III versus time after oral administration; and FIG. 2 is similar to FIG. 1, but reflects the serum concentrations in female rats. […] Therefore, both genders were tested to determine the concentration of torasemide in serum against the time after administration. The dose of torasemide was 3 mg per kilogram, administered orally. FIG. 1 is a graph illustrating the concentration in the serum of male rats of torasemide, as a result of administering modification I and modification III. FIG. 2 is a representation of the concentration of torasemide versus time after administration for the serum of female rats, treated the same as the male rats of FIG. 1.

[7] = in vivo; cited from earlier work
[8] = male versus female Wistar rats; P-450 oxidation products; cited from earlier work
[9] = system: sodium-potassium-2 chloride transport mechanism in the ascending limb of the loop of Henle; conditions: cited from earlier work

True density ± 95% - c.i. (True density; listed as Mod. I): 1.363 ± 0.001 g cm^-3
Water content after storing in relative humidity of 92% at 25° C. ([3]; listed as Mod. I): 0.2%
Heat of solution (Heat of solution): 8.63 kcal/mol
Heat of fusion ± 95% - C.B. [4]: 8.89 ± 0.454 kcal/mol
Compound: Cc1cccc(Nc2ccncc2S(=O)(=O)NC(=O)NC(C)C)c1 [Modification I]
Stability / rearrangement in tablets or on storage [1]: stable in tablets and did not rearrange again back into modification II
True density [2]: about 1.36

Compound: Cc1cccc(Nc2ccncc2S(=O)(=O)NC(=O)NC(C)C)c1 [Modification II]
True density ([2]; in g/cm3 (unit assumed)): 1.285

True density ± 95% - c.i. (True density; listed as Mod. III): 1.302 ± 0.009 g cm^-3
True density ± 95% - c.i. (True density; listed as modification III): 1.302±0.009 g cm^-3
Water content after storing in relative humidity of 92% at 25° C. ([3]; listed as Mod. III): 1.2%
Stability of the crystal modification [5]: storage stable
Heat of solution (Heat of solution; listed as Mod. III): 7.12 kcal/mol
Appearance in the serum after oral administration ([6]; oral): rapid appearance
Heat of transition ± 95% - C.B. ([4]; at about 159° C., the difference of the heats of fusion, ± 2.1 printed on next line): -19.6 kcal/mol
Heat of fusion ± 95% - C.B. ([4]; listed as Mod. III): 7.15 ± 0.22 kcal/mol
Compound: Cc1cccc(Nc2ccncc2S(=O)(=O)NC(=O)NC(C)C)c1 [Modification III]
Diuretic effect (Diuretic effect): effective diuretic
Serum concentration compared with modification I ([6]; 20 minutes after administration): more than twice the serum concentration as modification I
Serum concentration compared with modification I ([6]; 40 minutes after administration): almost twice the serum concentration as modification I

Compound: Cc1cccc(Nc2ccncc2S(=O)(=O)NC(=O)NC(C)C)c1 [Torasemide, 1-isopropyl-3-[(4-m-toluidino-3pyridyl)sulphonyl)urea]
Diuresis profile compared with other standard loop diuretics [7]: less intense initial diuresis and a sustained duration of action
Difference between male and female rats in excretion rate and metabolism [8]: significant differences
Mechanism of action [9]: blocks the sodium-potassium-2 chloride transport mechanism in the ascending limb of the loop of Henle
